Assay results as given in PMC12374823, “A Small Molecule Selectively Targets N-Myc to Suppress Neuroblastoma Cancer Progression” (International Journal of Biological Sciences, 2025).

Tests used:
N-Myc = molecular target: T1, N-Myc (Homo sapiens, UniProt P04198); assay: microscale thermophoresis (MST) with labeled purified N-Myc; supported by CETSA in cells; type: binding
T1 construct: gene MYCN; N-Myc^1-464
T1 sequence (P04198 1-464): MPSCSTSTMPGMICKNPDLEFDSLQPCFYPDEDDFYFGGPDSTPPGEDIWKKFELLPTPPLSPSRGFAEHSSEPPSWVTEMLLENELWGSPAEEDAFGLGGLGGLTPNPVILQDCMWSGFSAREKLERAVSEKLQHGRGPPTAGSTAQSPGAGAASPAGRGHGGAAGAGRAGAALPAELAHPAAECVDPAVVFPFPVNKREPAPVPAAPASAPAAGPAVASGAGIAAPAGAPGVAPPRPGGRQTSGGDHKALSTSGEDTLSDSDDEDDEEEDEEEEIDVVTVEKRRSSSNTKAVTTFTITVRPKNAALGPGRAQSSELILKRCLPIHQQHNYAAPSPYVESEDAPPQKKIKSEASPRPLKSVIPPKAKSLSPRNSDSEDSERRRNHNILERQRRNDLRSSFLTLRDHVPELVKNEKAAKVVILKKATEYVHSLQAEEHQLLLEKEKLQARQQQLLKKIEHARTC

c-Myc = molecular target: T2, c-Myc (Homo sapiens, UniProt P01106); assay: microscale thermophoresis (MST) with labeled recombinant c-Myc; type: binding
T2 construct: c-Myc^1-439
T2 sequence (P01106 16-454): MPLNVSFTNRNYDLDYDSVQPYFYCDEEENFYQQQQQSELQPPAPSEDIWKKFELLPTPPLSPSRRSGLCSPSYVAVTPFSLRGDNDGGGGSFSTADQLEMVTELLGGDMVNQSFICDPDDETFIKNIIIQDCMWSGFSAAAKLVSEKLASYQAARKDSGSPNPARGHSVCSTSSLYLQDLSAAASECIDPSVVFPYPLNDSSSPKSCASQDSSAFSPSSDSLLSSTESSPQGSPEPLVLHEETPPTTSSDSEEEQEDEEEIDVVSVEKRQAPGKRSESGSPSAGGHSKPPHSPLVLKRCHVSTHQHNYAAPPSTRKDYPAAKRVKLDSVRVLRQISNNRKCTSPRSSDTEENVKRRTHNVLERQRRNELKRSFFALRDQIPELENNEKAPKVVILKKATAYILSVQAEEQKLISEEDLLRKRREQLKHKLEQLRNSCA

Kd (N-Myc): 1.47 ± 0.52 µM
Kd (c-Myc): 8.48 ± 2.61 µM
SMILES: COc1ccc(-n2nc3ccc(NC(=O)CBr)cc3n2)cc1 [N78]
